This is an account of results in US9340600B2 (Indiana University Research and Technology Corporation, priority 2012, dated 2016).

Holding throughout (format): cell-based
For one experiment, the target named is T1, GLP-1 receptor (Homo sapiens, UniProt P43220).
T1 construct: expressed in transfected cells; host or cells: HEK293
Nature of the experiment: cAMP induction, firefly luciferase-based reporter assay in HEK293 cells co-transfected with GLP-1 receptor. The note with it: EC50 at GLP-1 Receptor. From the text: (§1) This example describes an exemplary method of testing the biological activity of the peptides of the present disclosures, which method involves assaying cAMP synthesis.
(Reporter assays use an easily measured gene product as a stand-in for the process of interest.)

Another experiment addresses T2, glucagon receptor (Homo sapiens, UniProt P47871).
T2 construct: expressed in transfected cells; host or cells: HEK293
Nature of the experiment: cAMP induction, firefly luciferase-based reporter assay in HEK293 cells co-transfected with glucagon receptor. The note with it: EC50 at Glucagon Receptor.
Text: as §1

The next experiment deals with T3, GIP receptor (Homo sapiens, UniProt P48546).
T3 construct: expressed in transfected cells; host or cells: HEK293
T3 sequence (P48546 22-466): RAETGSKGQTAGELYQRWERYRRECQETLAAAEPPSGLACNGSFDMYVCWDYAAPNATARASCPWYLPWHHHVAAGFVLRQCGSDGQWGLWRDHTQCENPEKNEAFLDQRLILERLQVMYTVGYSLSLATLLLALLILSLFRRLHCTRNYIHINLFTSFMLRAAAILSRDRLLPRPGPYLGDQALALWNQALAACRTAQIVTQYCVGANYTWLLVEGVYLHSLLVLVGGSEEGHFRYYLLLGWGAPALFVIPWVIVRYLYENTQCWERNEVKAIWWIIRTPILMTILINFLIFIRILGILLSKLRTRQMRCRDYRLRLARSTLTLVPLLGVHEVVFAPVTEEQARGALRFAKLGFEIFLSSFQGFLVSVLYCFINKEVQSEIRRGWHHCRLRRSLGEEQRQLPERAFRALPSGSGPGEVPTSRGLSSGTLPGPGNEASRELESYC
Nature of the experiment: cAMP induction, firefly luciferase-based reporter assay in HEK293 cells co-transfected with GIP receptor. The note with it: EC50 at GIP Receptor.
Text: as §1

[1] abbreviates: Table 3, analogs of SEQ ID NO: 18 varying at position 3.
Where [2] appears, read: Table 4, analogs of SEQ ID NO: 43 varying at position 3.
Setting [3] is: Table 5, analogs of SEQ ID NO: 10.

*1 amine or outer side, *2 acyl side, *3 side chain or, on linkers, in order; H or OH if unused. Where a SMILES comes first, the peptide text is derived from it. Side-chain parts run from the residue outwards. [ ]: non-standard residue; d: D form. The star is where a group is joined. γGlu = O=C(O)[C@H](CCC(=O)[*:2])N[*:1]; Met(O2) = CS(=O)(=O)CC[C@H](N)C(=O)O; Palmitoyl = CCCCCCCCCCCCCCCC(=O)*; Dab = NCC[C@H](N)C(=O)O; Nva = CCC[C@H](N)C(=O)O; Aib = CC(C)(N)C(=O)O

T1 sequence (P43220 24-463): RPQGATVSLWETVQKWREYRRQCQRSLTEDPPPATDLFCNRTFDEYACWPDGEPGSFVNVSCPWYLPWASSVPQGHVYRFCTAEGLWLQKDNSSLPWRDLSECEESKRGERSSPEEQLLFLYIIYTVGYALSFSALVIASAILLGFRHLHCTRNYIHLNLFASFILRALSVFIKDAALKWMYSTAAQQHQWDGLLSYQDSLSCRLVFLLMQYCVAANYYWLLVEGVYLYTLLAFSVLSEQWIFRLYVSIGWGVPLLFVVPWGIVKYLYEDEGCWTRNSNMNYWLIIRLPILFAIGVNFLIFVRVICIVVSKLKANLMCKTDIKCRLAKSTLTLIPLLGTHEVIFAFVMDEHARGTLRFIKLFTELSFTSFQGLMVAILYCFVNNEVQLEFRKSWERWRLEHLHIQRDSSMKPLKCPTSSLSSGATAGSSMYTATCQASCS
T2 sequence (P47871 26-477): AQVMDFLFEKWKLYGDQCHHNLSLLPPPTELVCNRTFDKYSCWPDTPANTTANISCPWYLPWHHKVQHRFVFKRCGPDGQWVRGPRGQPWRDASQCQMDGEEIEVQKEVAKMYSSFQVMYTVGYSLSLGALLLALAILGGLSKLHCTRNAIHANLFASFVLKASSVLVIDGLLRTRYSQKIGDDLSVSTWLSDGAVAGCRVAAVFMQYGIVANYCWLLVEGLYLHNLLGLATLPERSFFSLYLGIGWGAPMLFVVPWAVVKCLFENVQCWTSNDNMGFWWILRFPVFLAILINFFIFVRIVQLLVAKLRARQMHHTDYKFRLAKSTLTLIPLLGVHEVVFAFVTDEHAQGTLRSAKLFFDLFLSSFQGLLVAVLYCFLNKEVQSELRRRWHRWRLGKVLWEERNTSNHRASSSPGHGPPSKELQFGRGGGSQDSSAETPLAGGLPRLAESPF

Usually EC50 stands for the concentration at which the effect is half-maximal. In the case of `CCCCCCCCCCCCCCCC(=O)N[C@@H](CCC(=O)NCCCC[C@H](NC(=O)[C@H](CC(=O)O)NC(=O)[C@H](CO)NC(=O)[C@@H](NC(=O)[C@H](Cc1ccccc1)NC(=O)[C@@H](NC(=O)CNC(=O)[C@H](CCC)NC(=O)C(C)(C)NC(=O)[C@@H](N)Cc1c[nH]cn1)[C@@H](C)O)[C@@H](C)O)C(=O)N[C@@H](CO)C(=O)N[C@@H](CCCCN)C(=O)N[C@@H](Cc1ccc(O)cc1)C(=O)N[C@@H](CC(C)C)C(=O)N[C@@H](CCC(=O)O)C(=O)N[C@@H](CCC(=O)O)C(=O)N[C@@H](CCCNC(=N)N)C(=O)N[C@@H](C)C(=O)N[C@@H](C)C(=O)N[C@@H](CCC(N)=O)C(=O)N[C@@H](CCC(=O)O)C(=O)N[C@@H](Cc1ccccc1)C(=O)N[C@H](C(=O)N[C@@H](CCC(N)=O)C(=O)N[C@@H](Cc1c[nH]c2ccccc12)C(=O)N[C@@H](CC(C)C)C(=O)N[C@@H](CC(C)C)C(=O)N[C@@H](CCC(=O)O)C(=O)NCC(=O)NCC(=O)N1CCC[C@H]1C(=O)N[C@@H](CO)C(=O)N[C@@H](CO)C(=O)NCC(=O)N[C@@H](C)C(=O)N1CCC[C@H]1C(=O)N1CCC[C@H]1C(=O)N1CCC[C@H]1C(=O)N[C@@H](CO)C(N)=O)C(C)C)C(=O)O` [compound 38] (H-H[Aib][Nva]GTFTSDK([γGlu-Palmitoyl])SKYLEERAAQEFVQWLLEGGPSSGAPPPS-NH2; N-terminus assumed), the EC50 is 2 pM on GLP-1 receptor (setting [1]), 55 pM on glucagon receptor (setting [1]) and 4 pM at GIP receptor (setting [1]).

Regarding `CCCCCCCCCCCCCCCC(=O)N[C@@H](CCC(=O)NCCCC[C@H](NC(=O)[C@H](CC(=O)O)NC(=O)[C@H](CO)NC(=O)[C@@H](NC(=O)[C@H](Cc1ccccc1)NC(=O)[C@@H](NC(=O)CNC(=O)[C@H](CCS(C)(=O)=O)NC(=O)C(C)(C)NC(=O)[C@@H](N)Cc1c[nH]cn1)[C@@H](C)O)[C@@H](C)O)C(=O)N[C@@H](CO)C(=O)N[C@@H](CCCCN)C(=O)N[C@@H](Cc1ccc(O)cc1)C(=O)N[C@@H](CC(C)C)C(=O)N[C@@H](CCC(=O)O)C(=O)N[C@@H](CCC(=O)O)C(=O)N[C@@H](CCCNC(=N)N)C(=O)N[C@@H](C)C(=O)N[C@@H](C)C(=O)N[C@@H](CCC(N)=O)C(=O)N[C@@H](CCC(=O)O)C(=O)N[C@@H](Cc1ccccc1)C(=O)N[C@H](C(=O)N[C@@H](CCC(N)=O)C(=O)N[C@@H](Cc1c[nH]c2ccccc12)C(=O)N[C@@H](CC(C)C)C(=O)N[C@@H](CC(C)C)C(=O)N[C@@H](CCC(=O)O)C(=O)NCC(=O)NCC(=O)N1CCC[C@H]1C(=O)N[C@@H](CO)C(=O)N[C@@H](CO)C(=O)NCC(=O)N[C@@H](C)C(=O)N1CCC[C@H]1C(=O)N1CCC[C@H]1C(=O)N1CCC[C@H]1C(=O)N[C@@H](CO)C(N)=O)C(C)C)C(=O)O` [compound 41] (H-H[Aib][Met(O2)]GTFTSDK([γGlu-Palmitoyl])SKYLEERAAQEFVQWLLEGGPSSGAPPPS-NH2; N-terminus assumed), the values for the EC50 at GLP-1 receptor (setting [1]), at glucagon receptor (setting [1]) and on GIP receptor (setting [1]) were 2 pM, 592 pM and 67 pM, respectively.

For `CCCCCCCCCCCCCCCC(=O)N[C@@H](CCC(=O)NCCCC[C@H](NC(=O)[C@H](CC(=O)O)NC(=O)[C@H](CO)NC(=O)[C@@H](NC(=O)[C@H](Cc1ccccc1)NC(=O)[C@@H](NC(=O)CNC(=O)[C@H](CC[S+](C)[O-])NC(=O)C(C)(C)NC(=O)[C@@H](N)Cc1c[nH]cn1)[C@@H](C)O)[C@@H](C)O)C(=O)N[C@@H](CO)C(=O)N[C@@H](CCCCN)C(=O)N[C@@H](Cc1ccc(O)cc1)C(=O)N[C@@H](CC(C)C)C(=O)N[C@@H](CC(=O)O)C(=O)N[C@@H](CCC(=O)O)C(=O)N[C@@H](CCCNC(=N)N)C(=O)N[C@@H](C)C(=O)N[C@@H](C)C(=O)N[C@@H](CCC(N)=O)C(=O)N[C@@H](CC(=O)O)C(=O)N[C@@H](Cc1ccccc1)C(=O)N[C@H](C(=O)N[C@@H](CCC(N)=O)C(=O)N[C@@H](Cc1c[nH]c2ccccc12)C(=O)N[C@@H](CC(C)C)C(=O)N[C@@H](CC(C)C)C(=O)N[C@@H](CCC(=O)O)C(=O)NCC(=O)NCC(=O)N1CCC[C@H]1C(=O)N[C@@H](CO)C(=O)N[C@@H](CO)C(=O)NCC(=O)N[C@@H](C)C(=O)N1CCC[C@H]1C(=O)N1CCC[C@H]1C(=O)N1CCC[C@H]1C(=O)N[C@@H](CO)C(N)=O)C(C)C)C(=O)O` (stereo partly drawn) [compound 46], the figures for the EC50 at GLP-1 receptor (setting [2]), at glucagon receptor (setting [2]) and at GIP receptor (setting [2]) were 3 pM, 89 pM and 18 pM, respectively.

As for `CCCCCCCCCCCCCCCC(=O)N[C@@H](CCC(=O)NCCCC[C@H](NC(=O)[C@H](CC(=O)O)NC(=O)[C@H](CO)NC(=O)[C@@H](NC(=O)[C@H](Cc1ccccc1)NC(=O)[C@@H](NC(=O)CNC(=O)[C@H](CCNC(C)=O)NC(=O)C(C)(C)NC(=O)[C@@H](N)Cc1c[nH]cn1)[C@@H](C)O)[C@@H](C)O)C(=O)N[C@@H](CO)C(=O)N[C@@H](CCCCN)C(=O)N[C@@H](Cc1ccc(O)cc1)C(=O)N[C@@H](CC(C)C)C(=O)N[C@@H](CCC(=O)O)C(=O)N[C@@H](CCC(=O)O)C(=O)N[C@@H](CCCNC(=N)N)C(=O)N[C@@H](C)C(=O)N[C@@H](C)C(=O)N[C@@H](CCC(N)=O)C(=O)N[C@@H](CCC(=O)O)C(=O)N[C@@H](Cc1ccccc1)C(=O)N[C@H](C(=O)N[C@@H](CCC(N)=O)C(=O)N[C@@H](Cc1c[nH]c2ccccc12)C(=O)N[C@@H](CC(C)C)C(=O)N[C@@H](CC(C)C)C(=O)N[C@@H](CCC(=O)O)C(=O)NCC(=O)NCC(=O)N1CCC[C@H]1C(=O)N[C@@H](CO)C(=O)N[C@@H](CO)C(=O)NCC(=O)N[C@@H](C)C(=O)N1CCC[C@H]1C(=O)N1CCC[C@H]1C(=O)N1CCC[C@H]1C(=O)N[C@@H](CO)C(N)=O)C(C)C)C(=O)O` [compound 36] (H-H[Aib][Dab](Ac)GTFTSDK([γGlu-Palmitoyl])SKYLEERAAQEFVQWLLEGGPSSGAPPPS-NH2; N-terminus assumed), the EC50 worked out at 3 pM on GLP-1 receptor (setting [1]), 9 pM at glucagon receptor (setting [1]) and 14 pM on GIP receptor (setting [1]).

On to `CCCCCCCCCCCCCCCC(=O)N[C@@H](CCC(=O)NCCCC[C@H](NC(=O)[C@H](CC(=O)O)NC(=O)[C@H](CO)NC(=O)[C@@H](NC(=O)[C@H](Cc1ccccc1)NC(=O)[C@@H](NC(=O)CNC(=O)[C@H](CCC(N)=O)NC(=O)C(C)(C)NC(=O)[C@@H](N)Cc1c[nH]cn1)[C@@H](C)O)[C@@H](C)O)C(=O)N[C@@H](CO)C(=O)N[C@@H](CCCCN)C(=O)N[C@@H](Cc1ccc(O)cc1)C(=O)N[C@@H](CC(C)C)C(=O)N[C@@H](CC(=O)O)C(=O)N[C@@H](CCC(=O)O)C(=O)N[C@@H](CCCNC(=N)N)C(=O)N[C@@H](C)C(=O)N[C@@H](C)C(=O)N[C@@H](CCC(N)=O)C(=O)N[C@@H](CC(=O)O)C(=O)N[C@@H](Cc1ccccc1)C(=O)N[C@H](C(=O)N[C@@H](CCC(N)=O)C(=O)N[C@@H](Cc1c[nH]c2ccccc12)C(=O)N[C@@H](CC(C)C)C(=O)N[C@@H](CC(C)C)C(=O)N[C@@H](CCC(=O)O)C(=O)NCC(=O)NCC(=O)N1CCC[C@H]1C(=O)N[C@@H](CO)C(=O)N[C@@H](CO)C(=O)NCC(=O)N[C@@H](C)C(=O)N1CCC[C@H]1C(=O)N1CCC[C@H]1C(=O)N1CCC[C@H]1C(=O)N[C@@H](CO)C(N)=O)C(C)C)C(=O)O` [compound 43] (H-H[Aib]QGTFTSDK([γGlu-Palmitoyl])SKYLDERAAQDFVQWLLEGGPSSGAPPPS-NH2), for which the EC50 on GLP-1 receptor (Table 1) was determined as 4 pM; on GLP-1 receptor (setting [2]) it was 10 pM; on GLP-1 receptor (setting [3]) it was 7 pM; at glucagon receptor (Table 1), 6 pM; on glucagon receptor (setting [2]), 5 pM; on glucagon receptor (setting [3]), 5 pM. Also, the 50% effective concentration (EC50) at GIP receptor (Table 1) was 5 pM; on GIP receptor (setting [2]), 4 pM; on GIP receptor (setting [3]), 18 pM.
